Several values for one entry are separate records, joined by “and”; a condition that tells them apart may be missing. Identical values can stand only once.
Test: Solubility of the obtained compound in chloroform
Assay type: physicochemical
Conditions: solvent chloroform
`CCCCCCCCCCCCC#Cc1c2ccccc2cc2sc3c(sc4cc5ccccc5c(C#CCCCCCCCCCCCC)c43)c12` [di-1-tetradysine-substituted DNTT, di-1-tetradecyne-substituted DNTT] gave a solubility in chloroform of 6.5 wt %. Compound “Di-triisopropylsilylethane-substituted DNTT” has a solubility in chloroform of 0.51 wt %. `C[Si](C)(C)C#Cc1c2ccccc2cc2sc3c(sc4cc5ccccc5c(C#C[Si](C)(C)C)c43)c12` [Di-trimethylsilylacetylene-substituted DNTT] gave a solubility in chloroform of 0.05 wt %. In the case of “Di-triisopropylsilylacetylene-substituted dinaphthothienothiophene [di-TIPS-substituted DNTT]”, the solubility in chloroform is reported as 0.2 wt %. `CCCCCCCCC#Cc1c2ccccc2cc2sc3c(sc4cc5ccccc5c(C#CCCCCCCCC)c43)c12` [di-1-dysine-substituted DNTT, Di-1-dysine-substituted dinaphthothienothiophene] showed a solubility in chloroform of 2.3 wt %. In the case of `CCCCCCCCCCc1c2ccccc2cc2sc3c(sc4cc5ccccc5c(CCCCCCCCCC)c43)c12` [di-decane-substituted DNTT], the solubility in chloroform is reported as 0.05 wt %. In the case of `CC[Si](C#Cc1c2ccccc2cc2sc3c(sc4cc5ccccc5c(C#C[Si](CC)(CC)CC)c43)c12)(CC)CC` [Di-triethylsilylacetylene-substituted DNTT], the solubility in chloroform is reported as 0.10 wt % and 0.13 wt %.

Same assay, conditions: solvent chloroform; DNTT used as raw material
In the case of `c1ccc2cc3c(cc2c1)sc1c2cc4ccccc4cc2sc31` [DNTT, Dinaphthothienothiophene, reference compound], the “solubility in chloroform (in words)” value is reported as “substantially not dissolved”.

Same assay, conditions: solvent chloroform; listed as di-1-tetradesyne-substituted DNTT
`CCCCCCCCCCCCC#Cc1c2ccccc2cc2sc3c(sc4cc5ccccc5c(C#CCCCCCCCCCCCC)c43)c12` [di-1-tetradysine-substituted DNTT, di-1-tetradecyne-substituted DNTT] showed a solubility in chloroform of 1.67 wt %.
